Consider one compound from US9200269B2, “β-glucuronidase inhibitor” (priority 2007, dated 2015).

In assay [1] the test system is β-glucuronidase activity derived from microbial cells grown in the putrefied urine. As to the kind of experiment: Inhibition of β-glucuronidase activity derived from urine putrefying microbial cell (putrefied urine supernatant, PNPG). The assay is classed as biochemical. To be noted: 0.01 wt % in reaction solution; room temperature, 24 hours. As for the experimental part:
A putrefied urine product, which was prepared by collecting 20 mL of a urine sample, dispensing the sample in a bottle which had been preliminarily subjected to γ-ray sterilization without performing any microbe removing operation and storing the resultant at room temperature for 7 days, was used. 1 mL of the putrefied urine was centrifuged at 10,000 rpm for 5 minutes, and separated into a microbial cell and a supernatant. The precipitated microbial cell was suspended in 0.5 mL of saline. The supernatant was subjected to sterilizing through a 0.2-μm filter.
250 μL of a 2 mM PNPG aqueous solution, 100 μL of a 0.5 M phosphate buffer (pH 6.8), […] of a 10 wt % 8-cyclohexadecen-1-one DPG solution and 100 μL of ion exchanged water were mixed in a bottle γ-ray sterilized in advance, and subsequently 50 μL of the putrefied urine supernatant sample in Reference Example 3 were added. The mixture was allowed to react at room temperature. […]
The above-mentioned reaction solution immediately after the start of the reaction and after 24 hours of reaction was diluted with a 0.2 M glycine buffer (pH 10.4) and measured for its absorbance at a wavelength of 400 nm. A value obtained by subtracting the absorbance immediately after the start from the absorbance after 24 hours of reaction was used as an index of a β-glucuronidase activity.

A short description of assay [2]: Urine catching pad urine addition test, urine odor intensity. On the set-up: species or system human. To be noted: 30° C. As for the experimental part: Sensory evaluation of odor was performed by six panelists, the evaluation was based on a six-level odor intensity indication method in which the odor intensity was indicated with an evaluation score of 0 to 5. In the evaluation score, “0” indicates no odor, “1” indicates odor which can be slightly perceived (detection threshold), “2” indicates odor which can be perceived to be urine odor but is weak (perception threshold), “3” indicates odor which can be easily perceived to be urine odor, “4” indicates strong urine odor, and “5” indicates extreme urine odor. The odor intensity was determined at an interval of 0.5.
Specifically, the urine catching pad was prepared by replacing only a water-absorbent polymer in the commercially available urine catching pad “Relief urine catching pad safe absorption (Anshin-Kyusyu)” (manufactured by Kao Corporation) with a water-absorbent polymer wherein the β-glucuronidase inhibitor of the present invention was added. The added amount of the inhibitor to the water-absorbent polymer was 1 wt. % with respect to the water-absorbent polymer, and was equivalent to 1.5 g/m^2 with respect to the urine catching pad.
A urine addition test was performed by using test pieces having dimensions of 19 cm by 7 cm being cut out from the urine catching pad, and using a test piece containing no β-glucuronidase inhibitor as a blank. The test was performed as follows: 30 g of human urine (a mixture of urine from five humans) were added to these test pieces cut out from the urine catching pad, and the urine odor intensity after 1 hour, after 24 hours, and after 48 hours under preservation at 30° C. was evaluated by five panelists based on the six-level odor intensity indication method as described in the item (2) of Reference Example 2.

Assay [3] concerns the target T1, β-glucuronidase (Escherichia coli, UniProt P05804).
T1 construct: purchased Sigma-Aldrich Corporation
Kind of assay: Suppression of production of volatile compound from urine with added β-glucuronidase (GC-MS). It counts as biochemical. To be noted: 0.01 wt %; human urine plus enzyme, 25° C., 22 hours. As to the method: 9.9 mL of a human urine sample (a mixture of urine from five humans), from which microorganisms were filtered with a 0.2-μm filter (Millex GV manufactured by Millipore Corporation) were added to a bottle which had been preliminarily subjected to γ-ray sterilization immediately after the collection, and subsequently 0.1 mL of an Escherichia coli-derived β-glucuronidase Type VII-A (purchased from Sigma-Aldrich Corporation) aqueous solution adjusted to 250 units/mL was added and mixed. The mixture was incubated in a thermostat bath at 25° C. and allowed to react for 22 hours. An initial urine sample prepared by adding 0.1 mL of sterilized ion exchanged water as substitution of the enzyme solution, was similarly incubated in a thermostat bath for 22 hours.
9.9 mL of a human urine sample (a mixture of urine from five humans) which had been subjected to a microbe-removing operation with a 0.2-μm filter immediately after the collection and 10 μL of a 10 wt % 8-cyclohexadecen-1-one DPG solution were added to a bottle γ-ray sterilized in advance, and subsequently 0.1 mL of a […] aqueous solution adjusted to 250 units/mL was added and mixed. The mixture was incubated in a thermostat bath at 25° C. and allowed to react for 22 hours. The concentration of 8-cyclohexadecen-1-one in the reaction solution was 0.01 wt %. Further, a product prepared by adding 0.1 mL of an enzyme solution to 9.9 mL of the microbe-removed urine sample was used as a control, a product prepared by adding 0.1 mL of ion exchanged water to 9.9 mL of the microbe-removed urine sample was used as a blank, and the respective products were allowed to react for 22 hours in the same manner.
After the completion of the reaction, to 9 mL of the reaction solution, a benzyl benzoate ethanol solution was added as an internal standard. The mixture was extracted twice with 10 mL of diethyl ether. The extracted solutions were combined and dried over anhydrous magnesium sulfate. After drying, a solid was separated by filtration, and the filtrate was concentrated with a rotary evaporator to prepare a sample for measurement.
Measurement was performed with a gas chromatograph mass spectrometer. The production amount of the volatile compound detected was calculated as a peak area ratio with respect to an internal standard. The production suppression rate for each of volatile components was determined by using the obtained value in accordance with the following equation. Production amount of control=Peak area ratio of control—Peak area ratio of blank Production amount of sample=Peak area ratio of sample−Peak area ratio of blank Production suppression rate (%)=[(Production amount of control −Production amount of sample)/Production amount of control]×100

Setting [4] is: six-level score 0 to 5, average of five panelists, inhibitor 1 wt. % of water-absorbent polymer, 30 g human urine.

T1 sequence (P05804 whole entry): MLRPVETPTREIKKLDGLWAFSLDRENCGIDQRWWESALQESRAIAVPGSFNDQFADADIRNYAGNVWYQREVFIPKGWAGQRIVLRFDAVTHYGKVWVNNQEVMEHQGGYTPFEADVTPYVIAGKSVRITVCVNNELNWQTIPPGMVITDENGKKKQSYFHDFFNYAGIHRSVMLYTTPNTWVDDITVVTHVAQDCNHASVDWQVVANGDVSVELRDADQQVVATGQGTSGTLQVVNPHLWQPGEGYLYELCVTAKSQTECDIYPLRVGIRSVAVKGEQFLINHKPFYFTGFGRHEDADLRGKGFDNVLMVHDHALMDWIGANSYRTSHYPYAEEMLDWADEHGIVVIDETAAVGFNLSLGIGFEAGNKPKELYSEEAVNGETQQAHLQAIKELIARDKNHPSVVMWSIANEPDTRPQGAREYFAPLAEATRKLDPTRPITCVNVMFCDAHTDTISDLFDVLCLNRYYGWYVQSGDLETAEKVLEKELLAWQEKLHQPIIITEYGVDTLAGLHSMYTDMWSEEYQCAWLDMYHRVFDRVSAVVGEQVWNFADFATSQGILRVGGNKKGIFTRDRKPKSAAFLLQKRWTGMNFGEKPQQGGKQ

On to `O=C1CCCCCCC=CCCCCCCC1` [8-Cyclohexadecen-1-one, 8-cyclohexadecen-1-one], for which, in assay [1], the “β-glucuronidase activity of putrefied urine supernatant (result in words, FIG. 4)” value is “suppressed the β-glucuronidase activity”. Moreover, the “Suppression of the increase of urine odor in urine catching pad compared to the blank (result in words)” value in assay [2] (after 24 or 48 hours as stated) is reported as “even after 48 hours, was confirmed”. In assay [2] (setting [4]), the “Urine odor intensity After 1 hour” value was 1.3, the “Urine odor intensity After 24 hours” value was found to be 1.5 and the “Urine odor intensity After 48 hours” value was found to be 1.9. Besides, in assay [3], the “Production of phenol-based compounds and indole from urine (result in words)” value was “suppressed the production of all of phenol-based compounds and indole”; the “Production suppression rate (%) of 1,3-Benzenediol” value is given as 100%; the “Production suppression rate (%) of 1,4-Benzenediol” value amounted to 73%; the “Production suppression rate (%) of 2-Methoxy-1,3-benzenediol” value worked out at 73%. For the same compound, in assay [3], the “Production suppression rate (%) of 4-Vinyl-2-methoxyphenol” value is 55%, the “Production suppression rate (%) of 4-Vinylphenol” value turned out to be 57%, the “Production suppression rate (%) of Indole” value is recorded as 57% and the “Production suppression rate (%) of Phenol” value amounted to 70%. Also, the “Production suppression rate (%) of p-Cresol” value in assay [3] came out at 63%.
